One data set deals with IL-17A. Nature of the data set: Cytokine assay: IL-17A production by human PBMC stimulated with PHA. In kind it is cell-based. As to conditions: IC50 class, read-out: IL-17A Inhib. The method in brief: (§1)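 Healthy-donor PBMC, isolated on Histopaque-1077, were seeded at 1×10^5 cells/well in RPMI1640 with 10% dialyzed heat-inactivated FCS, activated with 2 μg/ml PHA and incubated with compound for 48 hours. Supernatant cytokine was measured by Luminex BioPlex or ELISA. IC50 came from semilogarithmic titration; screening used 10, 1, 0.1 and 0.01 μM.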

A further data set relates to INF-γ. As to the kind of experiment: Cytokine assay: INF-γ production by human PBMC stimulated with PHA. The format is cell-based. As to conditions: Homo sapiens, PBMC, IC50 class, read-out: IFN-gamma Inhib. The method, boiled down:
as §1

Data set [1] is described as follows: Microsomal stability: incubation with human liver microsomes, residual parent compound by HPLC-MS/MS. In kind it is in vitro ADME. Particulars: up to 60 min, read-out: t1/2 hLM. The method, boiled down: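 Compound at 1 μM final with 0.5 mg/ml pooled human liver microsomes and NADPH regenerating system, 0.1 M potassium phosphate pH 7.4, 0.4% DMSO, 37° C, sampled up to 60 min. Residual parent measured by HPLC-MS/MS; half-life and clearance from slope of remaining % of T0.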
For orientation: Microsomes from liver hold many membrane-bound enzymes, among them those of drug oxidation.

Data set [2] is described as follows: Aqueous solubility in 50 mM phosphate buffer (HPLC/DAD). The format is physicochemical. As to conditions: 50 mM phosphate buffer, 23 °C, pH 7.4, aqueous buffer, kinetic from dmso stock, aqueous solubility class; read-out: aq. solub. The protocol:
To achieve this, the samples (final volume 500 μl, 200 μM compound concentration) were incubated for 24 hours at 23° C. under continuous shaking at 1400 rpm (Thermomixer, Eppendorf) in aqueous phosphate buffers (pH 4.0, 6.0, 7.4 and 9.0) with a final DMSO concentration of 1%. To separate the undissolved compound from the solution, the samples were centrifuged (30 min 18000 g at 23° C.). Supernatants were measured via HPLC equipped with a UV detector and concentrations were calculated according to signals of a standard curve. The standard curve was prepared by diluting a stock solution of each compound (c=0.1 mg/ml; received by adding 10 μl of 20 mM compound in DMSO to 914 μl MeCN) in a certain amount of MeCN to cover a range of 0.1 to 200 μg/ml.

The test system of the next data set is IL-17F. As to the kind of experiment: Cytokine assay: IL-17F production by human PBMC stimulated with PHA. The format is cell-based. As to conditions: IC50 class, read-out: IL-17F Inhib. The method in brief: as §1
The mark [3] stands for this setting: human liver microsomes 0.5 mg/ml, compound 1 μM, pH 7.4, 37° C.
The mark [4] stands for this setting: pH 7.4, human liver microsomes, 1 μM compound, 0.5 mg/ml HLM, 37° C.

Converted amounts (≈) assume the structure as drawn. Like-named read-outs stand apart in the source and are kept apart here. A value given as a limit tells only on which side of the number the result lay.

As to `CCOC(=O)c1c(-c2c(F)cccc2Cl)noc1-c1cnn(CC(O)CC)c1C(F)(F)F` (racemic) [Example 14, ethyl 3-(2-chloro-6-fluorophenyl)-5-[1-(2-hydroxybutyl)-5-(trifluoromethyl)-1H-pyrazol-4-yl]-1,2-oxazole-4-carboxylate], the IC50 in the data set on IL-17A (Homo sapiens, PBMC) was less than 0.05 µM; in the data set on INF-γ it was less than 0.05 µM; in the data set with IL-17F (Homo sapiens, PBMC), less than 0.05 µM. The half-life at 1 μM in data set [1] (setting [3]) lay in the range of 10 to 40 min. In addition, the solubility at 24 h in data set [2] lay in the range of 3 to 9.99 µM (≈ 1.43 to 4.75 µg/mL).

For the compound `CCOC(=O)c1c(-c2c(F)cccc2Cl)noc1-c1cnn(CC(O)C(F)(F)F)c1C(F)(F)F` (racemic) [Example 15, ethyl 3-(2-chloro-6-fluorophenyl)-5-[1-(3,3,3-trifluoro-2-hydroxypropyl)-5-(trifluoromethyl)-1H-pyrazol-4-yl]-1,2-oxazole-4-carboxylate], the IC50 is less than 0.05 µM in the data set with IL-17A (Homo sapiens, PBMC); less than 0.05 µM in the data set with INF-γ; less than 0.05 µM with IL-17F (Homo sapiens, PBMC). For the same compound, the half-life at 1 μM in data set [1] (setting [3]) is 2 to 9.99 min. In data set [2], the solubility at 24 h lay in the range of 3 to 9.99 µM (≈ 1.55 to 5.15 µg/mL).

As to `C[C@]1(O)C[C@H](n2ncc(-c3onc(-c4c(F)cccc4Cl)c3C(=O)OC3CC3)c2C(F)(F)F)C1` [Example 51, cyclopropyl 3-(2-chloro-6-fluorophenyl)-5-{1-[3-hydroxy-3-methylcyclobutyl]-5-(trifluoromethyl)-1H-pyrazol-4-yl}-1,2-oxazole-4-carboxylate], the IC50 was 0.05 to 0.5 µM in the data set with IL-17A and less than 0.05 µM in the data set with IL-17F. The half-life at 1 μM in data set [1] (setting [3]) was 40 to 100 min. The solubility at 24 h in data set [2] lay within 3 to 9.99 µM (≈ 1.5 to 4.99 µg/mL).

Consider `COCc1c(-c2c(F)cccc2Cl)noc1-c1cnn(CC(C)(C)O)c1C(F)(F)F` [Example 65, 1-(4-(3-(2-chloro-6-fluorophenyl)-4-(methoxymethyl)isoxazol-5-yl)-5-(trifluoromethyl)-1H-pyrazol-1-yl)-2-methylpropan-2-ol], for which the IC50 was 0.5 to 5 µM with IL-17A (Homo sapiens, PBMC); 0.5 to 5 µM in the data set on INF-γ; 0.5 to 5 µM in the data set on IL-17F (Homo sapiens, PBMC). Besides, the solubility at 24 h in data set [2] is greater than 10 µM.

`COCc1c(-c2c(F)cccc2Cl)noc1-c1cnn(C[C@@H](C)O)c1C(F)(F)F` [Example 66, (2R)-1-(4-(3-(2-chloro-6-fluorophenyl)-4-(methoxymethyl)isoxazol-5-yl)-5-(trifluoromethyl)-1H-pyrazol-1-yl)propan-2-ol]: the IC50 is 0.05 to 0.5 µM in the data set with IL-17A (Homo sapiens, PBMC); less than 0.05 µM in the data set with INF-γ; 0.05 to 0.5 µM in the data set with IL-17F (Homo sapiens, PBMC). Further, the solubility at 24 h in data set [2] was greater than 10 µM.

`CC(C)(O)CCn1ncc(-c2onc(-c3cccc(OCCCN4CCS(=O)(=O)CC4)c3Cl)c2-c2ncccn2)c1C(F)(F)F` [Example 141, 4-[3-(2-chloro-3-{5-[1-(3-hydroxy-3-methylbutyl)-5-(trifluoromethyl)-1H-pyrazol-4-yl]-4-(pyrimidin-2-yl)-1,2-oxazol-3-yl}phenoxy)propyl]-thiomorpholine-1,1-dione]: the IC50 was less than 0.05 µM in the data set on IL-17A (Homo sapiens, PBMC); less than 0.05 µM with INF-γ; less than 0.05 µM in the data set with IL-17F (Homo sapiens, PBMC). Also, the half-life at 1 μM in data set [1] (setting [4]) was in the range of 2 to 9.99 min.

`CCN(CC)CCOc1cccc(-c2noc(-c3cnn(CCC(C)(C)O)c3C)c2-c2ncccn2)c1Cl` [Example 144, 4-[4-(3-{2-chloro-3-[2-(diethylamino)ethoxy]phenyl}-4-(pyrimidin-2-yl)-1,2-oxazol-5-yl)-5-methyl-1H-pyrazol-1-yl]-2-methylbutan-2-ol]: the IC50 with IL-17A (Homo sapiens, PBMC) fell in the range of 0.5 to 5 µM; with INF-γ, 0.05 to 0.5 µM; with IL-17F (Homo sapiens, PBMC) it was 0.5 to 5 µM. In addition, the solubility at 24 h in data set [2] is greater than 10 µM.

As for `Cc1c(-c2onc(-c3cccc(OCCN(C)C)c3Cl)c2-c2ncccn2)cnn1CCC(C)(C)O` [Example 145, 4-[4-(3-{2-chloro-3-[2-(dimethylamino)ethoxy]phenyl}-4-(pyrimidin-2-yl)-1,2-oxazol-5-yl)-5-methyl-1H-pyrazol-1-yl]-2-methylbutan-2-ol], the IC50 in the data set with IL-17A (Homo sapiens, PBMC) was in the range of 0.5 to 5 µM; in the data set with INF-γ, 0.05 to 0.5 µM; in the data set on IL-17F (Homo sapiens, PBMC), 0.5 to 5 µM. Also, the half-life at 1 μM in data set [1] (setting [4]) was greater than 100 min.

Turning to `Cc1c(-c2onc(-c3cccc(OCCN4CCCC4)c3Cl)c2-c2ncccn2)cnn1CCC(C)(C)O` [Example 146, 4-[4-(3-{2-chloro-3-[2-(pyrrolidin-1-yl)ethoxy]phenyl}-4-(pyrimidin-2-yl)-1,2-oxazol-5-yl)-5-methyl-1H-pyrazol-1-yl]-2-methylbutan-2-ol], the IC50 in the data set with IL-17A (Homo sapiens, PBMC) lay in the range of 0.05 to 0.5 µM; in the data set with INF-γ, 0.05 to 0.5 µM; in the data set on IL-17F (Homo sapiens, PBMC), 0.5 to 5 µM. The half-life at 1 μM in data set [1] (setting [4]) was greater than 100 min.

With `COC(=O)c1c(-c2cccc(OCCN3CCOCC3)c2Cl)noc1-c1cnn(C[C@H](C)O)c1C(F)(F)F` [Example 148, methyl 3-{2-chloro-3-[2-(morpholin-4-yl)ethoxy]phenyl}-5-{1-[(2S)-2-hydroxypropyl]-5-(trifluoromethyl)-1H-pyrazol-4-yl}-1,2-oxazole-4-carboxylate], the IC50 was less than 0.05 µM in the data set on IL-17A (Homo sapiens, PBMC); less than 0.05 µM with INF-γ; less than 0.05 µM in the data set with IL-17F (Homo sapiens, PBMC). Besides, the half-life at 1 μM in data set [1] (setting [4]) is 2 to 9.99 min.

Regarding `COCc1c(-c2cccc(OCCN3CCOCC3)c2Cl)noc1-c1cnn([C@H]2C[C@@](C)(O)C2)c1C(F)(F)F` [Example 150, 3-[4-(3-{2-chloro-3-[2-(morpholin-4-yl)ethoxy]phenyl}-4-(methoxymethyl)-1,2-oxazol-5-yl)-5-(trifluoromethyl)-1H-pyrazol-1-yl]-1-methylcyclobutan-1-ol], the IC50 is less than 0.05 µM in the data set on IL-17A (Homo sapiens, PBMC); less than 0.05 µM in the data set on INF-γ; less than 0.05 µM with IL-17F (Homo sapiens, PBMC). In addition, the half-life at 1 μM in data set [1] (setting [4]) is 2 to 9.99 min.

For the compound `COCc1c(-c2cccc(OCCN(C)C)c2Cl)noc1-c1cnn([C@H]2C[C@@](C)(O)C2)c1C(F)(F)F` [Example 151, 3-[4-(3-{2-chloro-3-[2-(dimethylamino)ethoxy]phenyl}-4-(methoxymethyl)-1,2-oxazol-5-yl)-5-(trifluoromethyl)-1H-pyrazol-1-yl]-1-methylcyclobutan-1-ol], the IC50 in the data set with IL-17A (Homo sapiens, PBMC) lay in the range of 0.05 to 0.5 µM; with INF-γ, 0.05 to 0.5 µM; in the data set on IL-17F (Homo sapiens, PBMC) it was 0.05 to 0.5 µM. In addition, in data set [1] (setting [4]), the half-life at 1 μM is greater than 100 min.

Take `COCc1c(-c2cccc(OCCN3CCOCC3)c2Cl)noc1-c1cnn([C@H]2C[C@](C)(O)C2)c1C(F)(F)F` [Example 152, 3-[4-(3-{2-chloro-3-[2-(morpholin-4-yl)ethoxy]phenyl}-4-(methoxymethyl)-1,2-oxazol-5-yl)-5-(trifluoromethyl)-1H-pyrazol-1-yl]-1-methylcyclobutan-1-ol]: the IC50 in the data set on IL-17A (Homo sapiens, PBMC) fell in the range of 0.05 to 0.5 µM; in the data set on INF-γ it was 0.05 to 0.5 µM; with IL-17F (Homo sapiens, PBMC), 0.05 to 0.5 µM. Further, in data set [1] (setting [4]), the half-life at 1 μM was in the range of 2 to 9.99 min.

In the case of `COCc1c(-c2cccc(OCCN(C)C)c2Cl)noc1-c1cnn([C@H]2C[C@](C)(O)C2)c1C(F)(F)F` [Example 153, 3-[4-(3-{2-chloro-3-[2-(dimethylamino)ethoxy]phenyl}-4-(methoxymethyl)-1,2-oxazol-5-yl)-5-(trifluoromethyl)-1H-pyrazol-1-yl]-1-methylcyclobutan-1-ol], the IC50 in the data set with IL-17A (Homo sapiens, PBMC) was no less than 5 µM; in the data set with INF-γ it was 0.5 to 5 µM; in the data set on IL-17F (Homo sapiens, PBMC), 0.5 to 5 µM. Also, in data set [1] (setting [4]), the half-life at 1 μM was greater than 100 min.

The values above are taken from patent publication US11292788B2, “IL-17 and IFN-gamma inhibition for the treatment of autoimmune diseases and chronic inflammation” (Immunic AG, priority 2017, dated 2022).
